Experimental findings from US20220235421A1, “DETECTING AND TREATING CISPLATIN SENSITIVE CANCER” (The Cleveland Clinic Foundation, priority 2021, published 2022) are described below.

For this assay, the system named is epithelial-based cancer cell lines (GDSC). As to the kind of experiment: Cell Line Persistence Curve of cisplatin IC50 in the GDSC dataset, by CisSig score cohort. As to conditions: cisplatin concentration approximately 5. From the text:
FIG. 11C compares the distribution of IC50 between cohorts of GDSC cell lines in this top and bottom quintile of CisSig score. We are terming this plot a “Cell Line Persistence Curve”, which resembles a Kaplan-Meier survival curve, but uses IC50 in place of survival time for cell lines. […] For example, when cisplatin concentration reaches approximately 5 approximately 50% of the resistant cohort remains with a greater IC50, while only 20% of the sensitive cohort remains with a greater IC50. In other words, cell lines predicted to be resistant tend to have greater IC50 values and cell lines predicted to be sensitive tend to have lower IC50 values.
The drug response data in the GDSC database was last updated 27 Mar. 2018; this version is referred to as “GDSC2.” Cisplatin drug concentration is reported in μM. Raw viability data were processed using the R package, gdscIC50, where they were normalized with negative controls (media alone) and positive controls (media only wells with no cells). Dose-response curves were fit using a multi-level fixed effect model with a classic sigmoidal curve shape assumed. This model was fitted using all cell line/drug combinations that were screened instead of fitting separate models to individual drug-response series. […]

As to `N.N.[Cl][Pt][Cl]` [cisplatin], the “proportion of the cohort remaining with a cisplatin IC50 greater than the cisplatin concentration” value runs as follows: (resistant cohort (bottom quintile of CisSig score)) “approximately 50%”; (sensitive cohort (top quintile of CisSig score)) 20%.
